Source: ChEMBL document CHEMBL3997839, “Novel conjugates of endoperoxide and 4-anilinoquinazoline as potential anticancer agents” (Bioorg Med Chem Lett, 2017)
Active and inactive are the calls of the source. No cut-off for these calls is given here.

What was measured:
A549 = test: Antiproliferative activity against human A549 cells harboring wild type EGFR after 48 hrs by MTT assay; assay type: functional, cell-based
L02 = test: Antiproliferative activity against human HL7702 cells after 48 hrs by MTT assay; assay type: ADME, cell-based
[1] = molecular target: Epidermal growth factor receptor (Homo sapiens, UniProt P00533)
Chain of Epidermal growth factor receptor (Homo sapiens, UniProt P00533) (P00533 whole entry, the tested form may be a part): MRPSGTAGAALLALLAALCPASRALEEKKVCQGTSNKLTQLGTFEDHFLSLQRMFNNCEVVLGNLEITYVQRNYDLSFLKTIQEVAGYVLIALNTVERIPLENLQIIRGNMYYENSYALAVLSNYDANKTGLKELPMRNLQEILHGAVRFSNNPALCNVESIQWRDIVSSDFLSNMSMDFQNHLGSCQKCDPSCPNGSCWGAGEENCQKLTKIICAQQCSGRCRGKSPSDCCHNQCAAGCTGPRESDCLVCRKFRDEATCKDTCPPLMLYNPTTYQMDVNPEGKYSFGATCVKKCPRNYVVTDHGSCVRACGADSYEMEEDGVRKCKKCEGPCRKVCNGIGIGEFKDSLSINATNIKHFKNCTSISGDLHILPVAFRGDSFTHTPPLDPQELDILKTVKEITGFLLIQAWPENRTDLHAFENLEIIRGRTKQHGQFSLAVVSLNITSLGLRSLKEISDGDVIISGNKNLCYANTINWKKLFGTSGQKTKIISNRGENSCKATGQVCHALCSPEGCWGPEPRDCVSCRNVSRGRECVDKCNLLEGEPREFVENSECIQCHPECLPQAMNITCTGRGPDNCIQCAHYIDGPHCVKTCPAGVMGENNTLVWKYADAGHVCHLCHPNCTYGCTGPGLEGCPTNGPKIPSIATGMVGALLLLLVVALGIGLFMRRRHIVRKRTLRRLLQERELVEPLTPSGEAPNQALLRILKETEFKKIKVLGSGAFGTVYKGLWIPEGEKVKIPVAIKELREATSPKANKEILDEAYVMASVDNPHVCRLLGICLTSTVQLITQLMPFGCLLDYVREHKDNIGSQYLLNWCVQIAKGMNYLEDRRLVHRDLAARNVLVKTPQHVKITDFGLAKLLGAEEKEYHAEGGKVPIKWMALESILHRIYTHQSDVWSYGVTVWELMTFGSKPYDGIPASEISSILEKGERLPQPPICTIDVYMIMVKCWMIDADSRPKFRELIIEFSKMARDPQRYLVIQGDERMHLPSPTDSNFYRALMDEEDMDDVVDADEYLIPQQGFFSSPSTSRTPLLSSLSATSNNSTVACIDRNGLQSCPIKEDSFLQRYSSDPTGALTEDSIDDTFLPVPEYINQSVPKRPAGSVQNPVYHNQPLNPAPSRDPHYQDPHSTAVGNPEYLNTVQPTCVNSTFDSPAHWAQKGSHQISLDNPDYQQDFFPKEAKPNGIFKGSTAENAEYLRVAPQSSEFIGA
Description: Inhibition of recombinant human GST-tagged EGFR cytoplasmic domain (668 to 1210 residues) expressed in baculovirus expression system by Z'-Lyte assay

[2] = molecular target: Epidermal growth factor receptor (Homo sapiens, UniProt P00533, L858R/T790M); test: Inhibition of recombinant human GST-tagged EGFR L858R/T790M double mutant cytoplasmic domain (668 to 1210 residues) expressed in baculovirus expression system by Z'-Lyte assay
[3] = molecular target: Epidermal growth factor receptor (Homo sapiens, UniProt P00533, L858R); assay type: cell-based
Chain of Epidermal growth factor receptor (Homo sapiens, UniProt P00533, L858R) (P00533 25-1210 L858R limits assumed): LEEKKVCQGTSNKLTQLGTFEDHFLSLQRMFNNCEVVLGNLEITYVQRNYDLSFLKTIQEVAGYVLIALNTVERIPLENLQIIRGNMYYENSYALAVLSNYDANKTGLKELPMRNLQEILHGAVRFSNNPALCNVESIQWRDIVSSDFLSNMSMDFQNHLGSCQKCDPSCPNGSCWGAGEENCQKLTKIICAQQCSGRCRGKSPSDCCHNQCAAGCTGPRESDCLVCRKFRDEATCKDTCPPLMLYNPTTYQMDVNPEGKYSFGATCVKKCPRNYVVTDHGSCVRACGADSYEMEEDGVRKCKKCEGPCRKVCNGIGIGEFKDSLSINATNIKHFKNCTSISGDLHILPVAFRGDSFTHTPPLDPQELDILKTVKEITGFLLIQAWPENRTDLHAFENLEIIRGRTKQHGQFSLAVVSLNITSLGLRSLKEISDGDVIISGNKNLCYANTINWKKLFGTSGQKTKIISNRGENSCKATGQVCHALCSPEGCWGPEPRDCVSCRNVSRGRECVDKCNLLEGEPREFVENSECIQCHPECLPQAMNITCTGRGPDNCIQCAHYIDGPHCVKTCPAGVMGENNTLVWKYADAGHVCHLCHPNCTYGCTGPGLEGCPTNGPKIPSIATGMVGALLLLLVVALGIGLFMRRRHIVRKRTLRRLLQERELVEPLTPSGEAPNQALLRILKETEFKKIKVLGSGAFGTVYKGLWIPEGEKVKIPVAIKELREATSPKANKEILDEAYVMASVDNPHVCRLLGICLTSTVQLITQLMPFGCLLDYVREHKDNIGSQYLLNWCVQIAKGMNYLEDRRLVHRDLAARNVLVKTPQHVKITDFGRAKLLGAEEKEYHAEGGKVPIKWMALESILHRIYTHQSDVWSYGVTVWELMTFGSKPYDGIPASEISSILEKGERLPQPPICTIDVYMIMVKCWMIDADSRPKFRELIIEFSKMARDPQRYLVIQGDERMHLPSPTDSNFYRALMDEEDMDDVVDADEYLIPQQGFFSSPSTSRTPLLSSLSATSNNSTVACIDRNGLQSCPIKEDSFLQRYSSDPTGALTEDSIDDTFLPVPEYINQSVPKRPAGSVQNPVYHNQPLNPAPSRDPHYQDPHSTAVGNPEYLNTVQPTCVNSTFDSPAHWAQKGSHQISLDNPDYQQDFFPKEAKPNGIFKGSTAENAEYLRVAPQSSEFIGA

HCC827 = test: Antiproliferative activity against human HCC827 cells harboring EGFR E746_A750 deletion mutant after 48 hrs by MTT assay; assay type: functional, cell-based
A-431 = test: Antiproliferative activity against EGFR over-expressing human A431 cells after 48 hrs by MTT assay; assay type: functional, cell-based
NCI-H1975 [4] = test: cells; assay type: functional, cell-based, Homo sapiens
NCI-H1975 [5] = test: Induction of apoptosis in human NCI-H1975 cells harboring EGFR L858R/T790M double mutant assessed as live cells at 3 uM after 48 hrs by Annexin V/propidium iodide staining based flow cytometry (reference value: 83.5%); assay type: functional
NCI-H1975 [6] = test: Induction of apoptosis in human NCI-H1975 cells harboring EGFR L858R/T790M double mutant assessed as necrotic cells at 6 uM after 48 hrs by Annexin V/propidium iodide staining based flow cytometry (reference value: 4.13%); assay type: functional
NCI-H1975 [7] = test: Induction of apoptosis in human NCI-H1975 cells harboring EGFR L858R/T790M double mutant assessed as late apoptotic cells at 3 uM after 48 hrs by Annexin V/propidium iodide staining based flow cytometry (reference value: 7.2%); assay type: functional
NCI-H1975 [8] = test: Induction of apoptosis in human NCI-H1975 cells harboring EGFR L858R/T790M double mutant assessed as late apoptotic cells at 6 uM after 48 hrs by Annexin V/propidium iodide staining based flow cytometry (reference value: 7.2%); assay type: functional
NCI-H1975 [9] = test: Induction of ROS generation in human NCI-H1975 cells harboring EGFR L858R/T790M double mutant after 4 hrs by DCFH-DA staining based flow cytometry; assay type: functional, cell-based
NCI-H1975 [10] = test: Induction of apoptosis in human NCI-H1975 cells harboring EGFR L858R/T790M double mutant assessed as necrotic cells at 3 uM after 48 hrs by Annexin V/propidium iodide staining based flow cytometry (reference value: 4.13%); assay type: functional
NCI-H1975 [11] = test: Induction of apoptosis in human NCI-H1975 cells harboring EGFR L858R/T790M double mutant assessed as necrotic cells at 9 uM after 48 hrs by Annexin V/propidium iodide staining based flow cytometry (reference value: 4.13%); assay type: functional
NCI-H1975 [12] = test: Induction of ROS generation in human NCI-H1975 cells harboring EGFR L858R/T790M double mutant assessed as fluorescence level at 12 uM after 4 hrs by DCFH-DA staining based flow cytometry; assay type: functional
NCI-H1975 [13] = test: Induction of apoptosis in human NCI-H1975 cells harboring EGFR L858R/T790M double mutant assessed as increase in cleaved PARP expression at 2.5 to 10 uM after 24 hrs by Western blot method; assay type: functional, cell-based
NCI-H1975 [14] = test: Induction of ROS generation in human NCI-H1975 cells harboring EGFR L858R/T790M double mutant assessed as fluorescence level at 6 uM after 4 hrs by DCFH-DA staining based flow cytometry; assay type: functional
NCI-H1975 [15] = test: Induction of apoptosis in human NCI-H1975 cells harboring EGFR L858R/T790M double mutant assessed as live cells at 9 uM after 48 hrs by Annexin V/propidium iodide staining based flow cytometry (reference value: 83.5%); assay type: functional
NCI-H1975 [16] = test: Induction of apoptosis in human NCI-H1975 cells harboring EGFR L858R/T790M double mutant assessed as live cells at 6 uM after 48 hrs by Annexin V/propidium iodide staining based flow cytometry (reference value: 83.5%); assay type: functional
NCI-H1975 [17] = test: Induction of apoptosis in human NCI-H1975 cells harboring EGFR L858R/T790M double mutant assessed as early apoptotic cells at 9 uM after 48 hrs by Annexin V/propidium iodide staining based flow cytometry (reference value: 4.1%); assay type: functional
NCI-H1975 [18] = test: Induction of apoptosis in human NCI-H1975 cells harboring EGFR L858R/T790M double mutant assessed as early apoptotic cells at 6 uM after 48 hrs by Annexin V/propidium iodide staining based flow cytometry (reference value: 4.1%); assay type: functional
NCI-H1975 [19] = test: Induction of apoptosis in human NCI-H1975 cells harboring EGFR L858R/T790M double mutant after 48 hrs by Annexin V/propidium iodide staining based flow cytometry; assay type: functional, cell-based
NCI-H1975 [20] = test: Induction of ROS generation in human NCI-H1975 cells harboring EGFR L858R/T790M double mutant assessed as fluorescence level at 3 uM after 4 hrs by DCFH-DA staining based flow cytometry; assay type: functional
NCI-H1975 [21] = test: Induction of apoptosis in human NCI-H1975 cells harboring EGFR L858R/T790M double mutant assessed as late apoptotic cells at 9 uM after 48 hrs by Annexin V/propidium iodide staining based flow cytometry (reference value: 7.2%); assay type: functional
NCI-H1975 [22] = test: Induction of apoptosis in human NCI-H1975 cells harboring EGFR L858R/T790M double mutant assessed as early apoptotic cells at 3 uM after 48 hrs by Annexin V/propidium iodide staining based flow cytometry (reference value: 4.1%); assay type: functional
NCI-H1975 [23] = test: Induction of ROS generation in human NCI-H1975 cells harboring EGFR L858R/T790M double mutant at 100 uM after 4 hrs by DCFH-DA staining based flow cytometry; assay type: functional, cell-based
NCI-H1975 [24] = test: Induction of ROS generation in human NCI-H1975 cells harboring EGFR L858R/T790M double mutant at 15 to 60 uM after 4 hrs by DCFH-DA staining based flow cytometry; assay type: functional, cell-based

SMILES | IC50 (A549; Homo sapiens, A549, 48 h) | IC50 (L02; Homo sapiens, L02, 48 h) | IC50 [1] | IC50 [2] | IC50 [3] | IC50 (HCC827; Homo sapiens, HCC827, 48 h) | IC50 (A-431; Homo sapiens, A-431, 48 h) | IC50 (NCI-H1975 [4]; Homo sapiens, NCI-H1975, 48 h) | IC50 (HCC827; hcc827) | IC50 (A-431; a-431) | IC50 (NCI-H1975 [4]; nci-h1975) | also measured
O=C(Nc1ccc2ncnc(Nc3cccc(Cl)c3)c2c1)C1CCC2(CC1)OOC1(CCCCC1)OO2 | 0.87 µM | 1.43 µM | 0.0838 µM | > 10 µM | 0.112 µM | 0.05 µM | 3.99 µM | 0.89 µM | – | – | – | –
CC1(C)OOC2(CCC(C(=O)Nc3ccc4ncnc(Nc5cccc(Cl)c5)c4c3)CC2)OO1 | 3.62 µM | 25.8 µM | 0.0114 µM | > 10 µM | 0.0171 µM | 0.26 µM | 19.6 µM | 1.77 µM | – | – | – | –
O=C(Nc1ccc2ncnc(Nc3cccc(Cl)c3)c2c1)C1CCC2(CC1)OCC1(OO2)C2CC3CC(C2)CC1C3 (stereo in doubt; 8) | – | – | 0.117 µM | – | 0.175 µM | – | – | – | 10.7 µM | 23.1 µM | 48.5 µM | IC50 (A549; a549): 24.7 µM
Nc1ccc2ncnc(Nc3cccc(Cl)c3)c2c1 | – | – | – | – | – | – | – | – | 0.1 µM | > 50 µM | > 50 µM | IC50 (A549; a549): > 100 µM; IC50 (L02; l02): > 100 µM
O=C(Nc1ccc2ncnc(Nc3cccc(Cl)c3)c2c1)C1CCC2(CC1)OOC1(OO2)C2CC3CC(C2)CC1C3 (stereo not given) | 0.92 µM | 5.7 µM | 0.38 µM | > 10 µM | 0.374 µM | 0.31 µM | 8.06 µM | 3.06 µM | – | – | – | Activity (NCI-H1975 [5]): 83.5%; Activity (NCI-H1975 [6]): 4.26%; Activity (NCI-H1975 [7]): 7.47%; Activity (NCI-H1975 [8]): 8.12%; Activity (NCI-H1975 [9]): Dose-dependent effect; Activity (NCI-H1975 [10]): 4.57%; Activity (NCI-H1975 [11]): 9.31%; Flu intensity (NCI-H1975 [12]): 6.42; Activity (NCI-H1975 [13]): Active; Flu intensity (NCI-H1975 [14]): 3.53; Activity (NCI-H1975 [15]): 52.2%; Activity (NCI-H1975 [16]): 74.2%; Activity (NCI-H1975 [17]): 7.56%; Activity (NCI-H1975 [18]): 12.7%; Activity (NCI-H1975 [19]): Dose-dependent effect; Flu intensity (NCI-H1975 [20]): 2.59; Activity (NCI-H1975 [21]): 19.8%; Activity (NCI-H1975 [22]): 7.54%
O=C(Nc1ccc2nccc(Nc3cccc(Cl)c3)c2c1)C1CCC2(CC1)OOC1(O2)C2CC3CC(C2)CC1C3 (stereo in doubt; 13) | 25.3 µM | 25.5 µM | 0.178 µM | > 10 µM | 0.236 µM | 12 µM | – | 33.4 µM | – | > 50 µM | – | –
O=C(Nc1ccc2ncnc(Nc3cccc(Cl)c3)c2c1)C1CCC2(CC1)OOC1(O2)C2CC3CC(C2)CC1C3 (stereo not given) | 8.45 µM | 18.2 µM | 0.0324 µM | > 10 µM | 0.0489 µM | 2.29 µM | 31.5 µM | 13 µM | – | – | – | –
O=C(O)C1CCC2(CC1)OOC1(OO2)C2CC3CC(C2)CC1C3 (stereo not given) | > 100 µM | > 100 µM | > 10 µM | > 10 µM | > 10 µM | > 50 µM | > 100 µM | > 50 µM | – | – | – | –
O=C(Nc1ccc2nccc(Nc3cccc(Cl)c3)c2c1)C1CCC2(CC1)OOC1(O2)C2CC3CC(C2)CC1C3 (stereo in doubt; 14) | – | – | 0.128 µM | – | 0.146 µM | – | – | – | 17 µM | 13.6 µM | 22.3 µM | IC50 (A549; a549): 18.3 µM; IC50 (L02; l02): > 50 µM
O=C(Nc1ccc2ncnc(Nc3cccc(Cl)c3)c2c1)C1CCCCC1 | 6.36 µM | > 50 µM | 0.00613 µM | > 10 µM | 0.00696 µM | 2.55 µM | > 50 µM | 41.8 µM | – | – | – | –
O=C(Nc1ccc2nccc(Nc3cccc(Cl)c3)c2c1)C1CCC2(CC1)OCC1(OO2)C2CC3CC(C2)CC1C3 (stereo not given) | 26.1 µM | > 100 µM | 0.169 µM | > 10 µM | 0.132 µM | 31.6 µM | > 50 µM | > 50 µM | – | – | – | Activity (NCI-H1975 [23]): inactive
O=C(Nc1ccc2ncnc(Nc3cccc(Cl)c3)c2c1)C1CCC2(CC1)OCC1(OO2)C2CC3CC(C2)CC1C3 (stereo in doubt; 7) | 18 µM | > 100 µM | 0.0947 µM | > 10 µM | 0.112 µM | – | 22 µM | – | 5.09 µM | – | 21.3 µM | –
COc1cc2ncnc(Nc3ccc(F)c(Cl)c3)c2cc1OCCCN1CCOCC1 | – | – | – | – | – | – | – | – | – | – | – | Activity (NCI-H1975 [24]): inactive
